We go through two molecules from US20180085371A1, “COMBINATION OF PANOBINOSTAT AND RUXOLITINIB IN THE TREATMENT OF CANCER SUCH AS A MYELOPROLIFERATIVE NEOPLASM” (Novartis AG, priority 2011, published 2018).

For one experiment, the system named is Acetylated Histone H3. The experiment in a line: PD marker acetylated histone H3 by IHC in spleen and bone marrow. The format is in vivo, mouse. To be noted: Compound B 8 mg/kg alone or with Compound A 60 mg/kg. From the text: Briefly, the spleen was removed in total, weighed and placed on a dissection tray. The spleen was cut transverse in two halves and two equal pieces were taken from the middle parts using a scalpel. […] Baker, Medite, Switzerland). Fixative volume was at least tenfold in excess compared to tissue volume. […] After a last wash in PBS, the tissues were cut up and set with the surface of interest downwards in a universal histocassette followed by processing in a TPC 15Duo (Tissue Processing Center) for paraffinization. From each tissue paraffin block, several 3 μm thick sections were cut on a sliding or rotary microtome (Mikrom International AG, Switzerland), spread in a 45° C. water-bath, mounted on microscope slides (Polysine, VWR International, Leuven, Belgium), and air-dried in an oven at 37° C. overnight. […] Splenic architecture was evaluated as destroyed (1+) or preserved (0). Presence of myeloid, erythroid and adipocytes cells was evaluated as 0, 1+, 2+, 3+ based on cellularity. […] Whole slide automated quantitative assessment of p-STAT5-positive and -negative cell nuclei were performed using Definiens eCognition software (eCognition version XD 1.5, Definiens AG, Germany). The results were expressed as percent of positive p-STAT5 nuclei out of total nuclei.

Another experiment relates to p-STAT5. The experiment in a line: PD marker p-STAT5 by IHC in spleen and bone marrow. The class given is in vivo, mouse. Conditions: Compound A 60 mg/kg single agent or with Compound B 8 mg/kg. As to the method:
The p-STAT5 PD marker of Compound A and Acetylated Histone H3 PD marker of Compound B were assessed in spleen and bone marrow. Briefly, the spleen was removed in total, weighed and placed on a dissection tray. The spleen was cut transverse in two halves and two equal pieces were taken from the middle parts using a scalpel. Spleen pieces were not allowed to exceed 3-4 mm in thickness. Spleen pieces were transferred into labeled histocassettes and immersion-fixed in neutral buffered formalin (NBF) 10% (v/v) at room temperature (pH 6.8-7.2) (J.T. Baker, Medite, Switzerland). Fixative volume was at least tenfold in excess compared to tissue volume. […]
For histological evaluation, BM cellularity was evaluated as hypercellularity (3+), normocellularity (2+), and hypocellularity (1+). Splenic architecture was evaluated as destroyed (1+) or preserved (0). Presence of myeloid, erythroid and adipocytes cells was evaluated as 0, 1+, 2+, 3+ based on cellularity. […] Whole slide automated quantitative assessment of p-STAT5-positive and -negative cell nuclei were performed using Definiens eCognition software (eCognition version XD 1.5, Definiens AG, Germany). The results were expressed as percent of positive p-STAT5 nuclei out of total nuclei. Staining of acetylated histone H3 was scored as 1+, 2+, 3+ based on staining intensity and number of positive cells.

For `Cc1[nH]c2ccccc2c1CCNCc1ccc(/C=C/C(=O)NO)cc1` [Compound B, N-hydroxy-3-[4-[[[2-(2-methyl-1H-indol-3-yl)-ethyl]-amino]methyl]phenyl]-2E-2-propenamide], the “Acetylated histone H3 (IHC), surrogate readout for deacetylase inhibition” value in the experiment with Acetylated Histone H3 was “clear increase”.
On to `N#CC[C@H](C1CCCC1)n1cc(-c2ncnc3[nH]ccc23)cn1` [Compound A, (R)-3-(4-(7H-pyrrolo[2,3-d]pyrimidin-4-yl)-1H-pyrazol-1-yl)-3-cyclopentylpropanenitrile], for which the “p-STAT5 PD marker (IHC)” value with p-STAT5 is recorded as “clear reduction”.
